Reference: patent US20210322508A1, “PEPTIDES AND COMPOSITIONS FOR TARGETED TREATMENT AND IMAGING” (SIGNABLOK, INC., priority 2018, published 2021)
Residues, ends and D or L forms follow the SMILES beside them.

Key:
LPS-challenged mice = test: cytokine production in LPS-challenged mice; format: in vivo; settings: treated 1 h before LPS challenge
Procedure: Control peptide represents an equimolar mixture of two peptides, each of them comprising two amino acid domains A and B where domain A represents a non-functional 9 amino acids-long sequence of the TREM-1 inhibitory therapeutic peptide sequence wherein, Lys5 is substituted with Ala5, whereas domain B is a sulfoxidized methionine residue-containing 22 amino acids-long apolipoprotein A-I helix 4 or 6 peptide sequence, respectively. *, P=0.01 to 0.05 as compared with animals treated with 5 mg/kg TRIOPEP in free form; ***, P=0.0001 to 0.001 as compared with PBS-treated animals.

[1] = system: C57BL/6J neonatal mice with oxygen-induced retinopathy; test: Oxygen-induced retinopathy (OIR): pathological retinal neovascularization; format: in vivo
Procedure: Litters of C57BL/6J (Jackson Laboratory, Bar Harbor, Me.) neonatal mice and nursing dams were exposed to a hyperoxia environment (75% oxygen) from postnatal day 7 (P7) to P12 and returned to normoxia until P17. The hyperoxia exposure causes degeneration of the immature retinal vessels. […] Beginning on P7, mice were treated until day P17 by daily i.p. injections of GF9, GF9-SLP, TREM-1/TRIOPEP-sSLP or vehicle (phosphate-buffered saline, pH 7.4; PBS). […] In another subset of experiments, rho B-labeled Gd-containing sSLP were used to confirm the ability of these targeted SLP to cross the BRB in other species (rats and rabbits). In another subset of experiments, neonatal mice and nursing dams were not subjected to a hyperoxia environment and reared in room air (RA). […]
Treatment effects on vaso-obliteration and pathological angiogenesis were assessed by morphometric analysis of the avascular and neovascularization areas in retinal flat mounts after labeling with isolectin B4 as described in Patel, et al. Am J Pathol 2014, 184:3040-3051. […] After washing 3 times with PBS, the images were captured with a 20× lens using a Zeiss Axioplan2 fluorescence microscope (Carl Zeiss Meditec, Inc., Dublin, Calif.). Intravitreal neovascular formation and avascular area were measured as described in Connor, et al. Nat Protoc 2009, 4:1565-1573. […]

[2] = system: human pancreatic cancer BxPC-3 xenograft; settings: for intratumoral macrophage infiltration (F4/80 staining): 25 mg/kg GF9, 2.5 mg/kg GF9-sSLP/GF9-LPC, 4 mg/kg GA/E31-sSLP where stated; for tumor growth: i.p. 5qw, 25 mg/kg GF9, 2.5 mg/kg GF9-SLP, 4 mg/kg GA/E31-SLP where stated
Procedure: (B) F4/80 staining. Results are expressed as the mean±SEM (n=4 mice per group). *, p<0.05; **, p<0.01, ****, p<0.0001 (versus vehicle). […] Scale bar=200 μm.
Treatment persisted for 31, 29 and 29 days for mice containing AsPC-1, BxPC-3 and Capan-1 tumor xenografts, respectively. Mean tumor volumes are calculated and plotted. All results are expressed as the mean±SEM (n=6 mice per group). On the final day of treatment, tumor volumes were compared between the drug-treated and control groups. **, p<0.01; ***, p<0.001; ****, p<0.0001 (versus vehicle).
As described herein, after tumors in AsPC-1-, BxPC-3- or Capan-1-bearing mice reached a volume of 150-200 mm^3, mice were randomized into groups and intraperitoneally (i.p.) administered once daily 5 times per week (5qw) with either vehicle (black diamonds), GA/E31-dSLP (light gray triangles) or GA/E31-sSLP (white triangles) at indicated doses. Treatment persisted for 31, 29 and 29 days for mice containing AsPC-1, BxPC-3 and Capan-1 tumor xenografts, respectively. Mean tumor volumes are calculated and plotted. All results are expressed as the mean±SEM (n=6 mice per group). On the final day of treatment, tumor volumes were compared between the drug-treated and control groups. **, p<0.01; ***, p<0.001; ****, p<0.0001 (versus vehicle).
Treatment persisted for 31, 29 and 29 days for mice containing AsPC-1, BxPC-3 and Capan-1 tumor xenografts, respectively. Kaplan-Meier survival curves are shown for AsPC-1-, BxPC-3- or Capan-1-bearing mice (n=6 mice per group). **, p<0.01; ***, p<0.001 by log-rank test (versus vehicle).
Serum CSF1, VEGF and IL-6 levels were analyzed on study days 1 and 8 in BxPC-3-bearing mice treated daily 5 times per week (5qw) with either vehicle (black diamonds), GF9 (white circles) or GF9-LPC (black circles) at indicated doses. Results are expressed as the mean±SEM (n=5 mice per group). *, p<0.05; **, p<0.01; ***, p<0.001; ****, p<0.0001 (versus vehicle).

[3] = system: human non-small cell lung cancer A549 xenograft; format: in vivo; settings: vs vehicle; for tumor growth: PTX 20 mg/kg as comparator
Procedure: PTX, paclitaxel. ****, P<0.0001 as compared with vehicle-treated animals.
PTX, paclitaxel. ****, p<0.0001 as compared with vehicle-treated animals.
Abbreviations: PTX, paclitaxel; PBS, phosphate-buffer saline.
Treatment persisted for 21 days. Mean tumor volumes are calculated and plotted. Body weighs are plotted.

Structure (SMILES) | TNF-alpha, IL-6 and IL-1beta production in mice at 90 min post LPS challenge (LPS-challenged mice) | reduction of pathological RNV ([1]; free peptides, daily i.p. P7-P17 at indicated doses) | intratumoral macrophage infiltration (F4/80 staining) [2] | tumor growth [2] | average tumor weights [3] | tumor growth [3] | toxicity / tolerability in mouse litters ([1]; mouse, in vivo)
CC(C)C[C@H](NC(=O)[C@H](Cc1ccccc1)NC(=O)CN)C(=O)N[C@@H](CO)C(=O)N[C@@H](CCCCN)C(=O)N[C@@H](CO)C(=O)N[C@@H](CC(C)C)C(=O)N[C@H](C(=O)N[C@@H](Cc1ccccc1)C(=O)N[C@@H](Cc1c[nH]c2ccccc12)C(=O)N[C@@H](CCC(N)=O)C(=O)N[C@@H](CCC(=O)O)C(=O)N[C@@H](CCC(=O)O)C(=O)N[C@@H](CC[S+](C)[O-])C(=O)N[C@@H](CCC(=O)O)C(=O)N[C@@H](CC(C)C)C(=O)N[C@@H](Cc1ccc(O)cc1)C(=O)N[C@@H](CCCNC(=N)N)C(=O)N[C@@H](CCC(N)=O)C(=O)N[C@@H](CCCCN)C(=O)N[C@H](C(=O)O)C(C)C)C(C)C (stereo partly drawn) [G-KV21] (HELM PEPTIDE1{G.F.L.S.K.S.L.V.F.W.Q.E.E.[CS(=O)CC[C@H](N[*:1])C(=O)[*:2]].E.L.Y.R.Q.K.V}$$$$V2.0) | significantly inhibit the LPS-induced cytokine release | up to 95% | reduce macrophage infiltration into the tumor | significantly inhibits the tumor growth | significantly decrease the tumor weight | significantly inhibit the tumor growth | 
CC(C)C[C@H](NC(=O)[C@H](Cc1ccccc1)NC(=O)CN)C(=O)N[C@@H](CO)C(=O)N[C@@H](CCCCN)C(=O)N[C@@H](CO)C(=O)N[C@@H](CC(C)C)C(=O)N[C@H](C(=O)N[C@@H](Cc1ccccc1)C(=O)O)C(C)C [GF9] (H-GFLSKSLVF-OH) |  |  |  |  |  |  | non-toxic and well-tolerated in mouse litters
CC(C)C[C@H](NC(=O)[C@H](Cc1ccccc1)NC(=O)CN)C(=O)N[C@@H](CO)C(=O)N[C@@H](CCCCN)C(=O)N[C@@H](CO)C(=O)N[C@@H](CC(C)C)C(=O)N[C@H](C(=O)N[C@@H](Cc1ccccc1)C(=O)NCC(=O)N[C@@H](CCC(=O)O)C(=O)N[C@@H](CCC(=O)O)C(=O)N[C@@H](CC[S+](C)[O-])C(=O)N[C@@H](CCCNC(=N)N)C(=O)N[C@@H](CC(=O)O)C(=O)N[C@@H](CCCNC(=N)N)C(=O)N[C@@H](C)C(=O)N[C@@H](CCCNC(=N)N)C(=O)N[C@@H](C)C(=O)N[C@@H](Cc1c[nH]cn1)C(=O)N[C@H](C(=O)O)C(C)C)C(C)C (stereo partly drawn) [G-HV21] (HELM PEPTIDE1{G.F.L.S.K.S.L.V.F.G.E.E.[CS(=O)CC[C@H](N[*:1])C(=O)[*:2]].R.D.R.A.R.A.H.V}$$$$V2.0) | significantly inhibit the LPS-induced cytokine release |  | reduce macrophage infiltration into the tumor | significantly inhibits the tumor growth | significantly decrease the tumor weight | significantly inhibit the tumor growth | 
